The record followed here is ChEMBL document CHEMBL5579878, “Allosteric Activation of Protein Phosphatase 5 with Small Molecules” (J Med Chem, 2024).

Positions count from the first letter of the chain named. pIC50, pKd: −log10 of the molar value. Activity calls are given as the source filed them. The calls are words filed in the database; no cut-off is given here.

In data set [1] the target is Dual specificity protein phosphatase 3 (Homo sapiens) (UniProt P51452). Put plainly: Inhibition of DUSP3 (unknown origin) using DiFMUP as substrate at 0.01 to 1000 uM. The note with it: dose 0.01-1000 µM.
Chain of Dual specificity protein phosphatase 3 (Homo sapiens) (P51452 whole entry, looked up): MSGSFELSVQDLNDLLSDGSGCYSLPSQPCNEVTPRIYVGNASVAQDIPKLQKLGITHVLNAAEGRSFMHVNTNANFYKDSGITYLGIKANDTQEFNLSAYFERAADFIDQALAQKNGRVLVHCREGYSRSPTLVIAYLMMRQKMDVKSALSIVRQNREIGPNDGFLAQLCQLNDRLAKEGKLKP
Data set [2] deals with T1, Serine/threonine-protein phosphatase 5 (Homo sapiens, UniProt P53041).
T1 sequence (P53041 whole entry): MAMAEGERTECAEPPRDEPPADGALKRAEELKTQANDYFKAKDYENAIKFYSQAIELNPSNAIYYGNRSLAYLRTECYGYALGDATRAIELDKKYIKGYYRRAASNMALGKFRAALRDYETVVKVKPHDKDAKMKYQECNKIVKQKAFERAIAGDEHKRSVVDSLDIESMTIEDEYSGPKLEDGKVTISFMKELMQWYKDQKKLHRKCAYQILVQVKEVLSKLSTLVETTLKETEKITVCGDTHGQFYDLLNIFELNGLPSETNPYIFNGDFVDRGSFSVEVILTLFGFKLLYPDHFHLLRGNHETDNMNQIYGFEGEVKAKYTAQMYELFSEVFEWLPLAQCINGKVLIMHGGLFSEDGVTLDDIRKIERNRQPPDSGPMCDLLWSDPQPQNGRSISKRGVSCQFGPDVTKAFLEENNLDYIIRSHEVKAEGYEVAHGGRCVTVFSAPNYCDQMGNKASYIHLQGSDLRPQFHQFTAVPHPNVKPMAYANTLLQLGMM
Put plainly: Binding affinity to full length His-tagged human PP5 extracted from Escherichia coli BL21 assessed as dissociation constant by ITC analysis. Background: ITC needs no label: the signal is the heat of the interaction.

Data set [3] has as its target Serine/threonine-protein phosphatase PP1-alpha catalytic subunit (Homo sapiens) (UniProt P62136). Put plainly: Inhibition of PP1A (unknown origin) using DiFMUP as substrate at 0.01 to 1000 uM. The settings on record: dose 0.01-1000 µM.
A further data set is filed under the species Homo sapiens. Put plainly: Inhibition of PP2A (unknown origin) using DiFMUP as substrate at 0.01 to 1000 uM. The note with it: dose 0.01-1000 µM.
Data set [4] has as its system T2, Serine/threonine-protein phosphatase 5 (Homo sapiens), P53041 [E428A].
T2 sequence (whole entry): T1 sequence (P53041 whole entry) with E428A
Put plainly: Binding affinity to PP5 E428A mutant (unknown origin) by ITC analysis.

Data set [5] has as its target T3, Serine/threonine-protein phosphatase 5 (Homo sapiens) (UniProt P53041).
T3 sequence (whole entry): T1 sequence (P53041 whole entry)
Nature of the data set: Binding affinity to human PP5 extracted from Escherichia coli BL21 using CDC37 as substrate assessed as increase in dephosphorylation of p-CDC37 at S13 residue incubated for 1 hrs by Western blot analysis. The settings on record: filed as activator, dose 5-50 µM.

The subject of data set [6] is T2, Serine/threonine-protein phosphatase 5 (Homo sapiens), P53041 [E428A]. Put plainly: Activation of PP5 E428A mutant (unknown origin) using pNPP as substrate assessed as increase in phosphatase activity at 10 to 200 uM incubated for 30 mins by spectrophotometric analysis. The note with it: dose 10-200 µM.
The test system of data set [7] is SW-620. Put plainly: Antiproliferative activity against human SW620 cells assessed as inhibition of cell proliferation at 1 to 100 uM incubated for 72 hrs by CCK8 assay. Type of data set: functional, cell-based. The settings on record: dose 1-100 µM. (Tetrazolium assays rely on reduction of a dye to a coloured formazan, in cell work by metabolically active cells.)

Data set [8] deals with HCT-116. Nature of the data set: Effect on HSP40 expression level in human HCT-116 cells at 1 to 100 uM incubated for 24 hrs by Western blot analysis. Format: functional, cell-based. The note with it: dose 1-100 µM. In general terms: In western blotting, separated proteins are transferred to a membrane and probed.
Data set [9] concerns HCT-116. Put plainly: Downregulation of AT13387-induced HSP70 expression in human HCT-116 cells at 50 uM incubated for 24 hrs by Western blot analysis. Type of data set: functional, cell-based.
The test system of data set [10] is SW-620. Put plainly: Enhancement of HSP90 inhibitor AT13387-induced antiproliferative activity against human SW620 cells assessed as HSP90 inhibitor AT13387 IC50 at 50 uM incubated for 72 hrs by CCK8 assay (reference value: 122.3 nM). Format: functional, cell-based. The settings on record: SW-620, 72 h.
Data set [11] has as its system HCT-116. Put plainly: Enhancement of HSP90 inhibitor AT13387-induced antiproliferative activity against human HCT-116 cells assessed as HSP90 inhibitor AT13387 IC50 at 50 uM incubated for 72 hrs by CCK8 assay (reference value: 78.49 nM). The settings on record: HCT-116, 72 h. Type of data set: functional, cell-based.
Data set [12] relates to HCT-116. Put plainly: Enhancement of HSP90 inhibitor AT13387-induced antiproliferative activity against human HCT-116 cells assessed as fold change in HSP90 inhibitor AT13387 IC50 at 50 uM incubated for 72 hrs by CCK8 assay. Format: functional.
The subject of data set [13] is HCT-116. Put plainly: Downregulation of AT13387-induced HSP40 mRNA expression in human HCT-116 cells at 50 uM incubated for 24 hrs by qRT-PCR analysis. Format: functional, cell-based.
A short description of data set [14]: Toxicity in BALB/c nude mouse xenografted with human HCT-116 cells assessed as body weight loss at 30 to 60 mg/kg, ip administered every other day for 14 days in presence of AT13387. Type of data set: organism-based. The note with it: in vivo, 336 h, dose 30-60 mg/kg, time 14 day.
Data set [15] deals with HCT-116. Nature of the data set: Antitumor activity against human HCT-116 cells xenografted in BALB/c nude mouse assessed as decrease in AT13387-induced HSP40 protein expression in tumor at 30 to 60 mg/kg, ip administered every other day for 14 days by Western blot analysis. Type of data set: functional, organism-based. The settings on record: dose 30-60 mg/kg, time 14.0 day.

Data set [16] has as its system HCT-116. Nature of the data set: Antitumor activity against human HCT-116 cells xenografted in BALB/c nude mouse assessed as decrease in AT13387-induced HSP70 protein expression in tumor at 30 to 60 mg/kg, ip administered every other day for 14 days by Western blot analysis. Type of data set: functional, organism-based. The settings on record: dose 30-60 mg/kg, time 14.0 day.

Chain of Serine/threonine-protein phosphatase PP1-alpha catalytic subunit (Homo sapiens) (P62136 whole entry): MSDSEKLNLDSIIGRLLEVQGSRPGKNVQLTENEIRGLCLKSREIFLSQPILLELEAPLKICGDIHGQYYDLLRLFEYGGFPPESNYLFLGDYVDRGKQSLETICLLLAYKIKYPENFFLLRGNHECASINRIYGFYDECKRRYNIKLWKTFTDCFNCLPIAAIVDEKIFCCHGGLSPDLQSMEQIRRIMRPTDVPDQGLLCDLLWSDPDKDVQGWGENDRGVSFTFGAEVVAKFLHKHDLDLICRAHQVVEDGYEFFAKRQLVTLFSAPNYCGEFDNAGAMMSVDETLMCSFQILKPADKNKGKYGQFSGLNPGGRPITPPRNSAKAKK

As a reminder, the pKd is the Kd on a negative log10 scale, so that one unit is a factor of ten. In general, pIC50 refers to −log10 of the IC50, conventionally taken in molar units. Turning to `N=c1oc2cc(F)cc(F)c2cc1C(N)=S`, the inhibition result (in data set [1]; in data set [3]; in the data set filed under Homo sapiens) was “inactive” each time. Besides, in data set [2], the negative-log Kd (pKd) was 5.94. Moreover, the result (in data set [4]; in [6]; in the data set with SW-620 [7]; with HCT-116 [8]) was inactive. For the same compound, the Activity entry in data set [5] is “Dose-Dependent Effect”; in data set [14] it was “Non-Toxic”. Besides, the result in the data set with HCT-116 [9], in the data set with HCT-116 [13], in the data set on HCT-116 [15] and in the data set on HCT-116 [16] was Active. In addition, the negative-log IC50 (pIC50) in the data set with SW-620 [10] is 7.26; in the data set on HCT-116 [11], 7.39. The “fold change (FC)” value in the data set with HCT-116 [12] was 2.
